Experimental data reported in patent US10822345B2 (4SC AG, priority 2015, dated 2020).

molecular target: Kv1.3 (Homo sapiens (Human), UniProt P22001); experiment: Patch-clamp assay for inhibitory activity on Kv1.3 (whole cell recording); type: cell-based; conditions: n≥2 per concentration, three or more concentrations
Description: Patch-Clamp Assay for Inhibitory Activity on Kv1.3
For a description of a Kv1.3 patch-clamp assay, see Grissmer et al., Mol. Pharmacol. 1994, 45, 1227; whole cell patch-clamp recording was performed with n≥2 individual experiments at each compound concentration using different cells. Three or more different concentrations were determined per dose response curve.

Sequence of Kv1.3 (P22001 whole entry): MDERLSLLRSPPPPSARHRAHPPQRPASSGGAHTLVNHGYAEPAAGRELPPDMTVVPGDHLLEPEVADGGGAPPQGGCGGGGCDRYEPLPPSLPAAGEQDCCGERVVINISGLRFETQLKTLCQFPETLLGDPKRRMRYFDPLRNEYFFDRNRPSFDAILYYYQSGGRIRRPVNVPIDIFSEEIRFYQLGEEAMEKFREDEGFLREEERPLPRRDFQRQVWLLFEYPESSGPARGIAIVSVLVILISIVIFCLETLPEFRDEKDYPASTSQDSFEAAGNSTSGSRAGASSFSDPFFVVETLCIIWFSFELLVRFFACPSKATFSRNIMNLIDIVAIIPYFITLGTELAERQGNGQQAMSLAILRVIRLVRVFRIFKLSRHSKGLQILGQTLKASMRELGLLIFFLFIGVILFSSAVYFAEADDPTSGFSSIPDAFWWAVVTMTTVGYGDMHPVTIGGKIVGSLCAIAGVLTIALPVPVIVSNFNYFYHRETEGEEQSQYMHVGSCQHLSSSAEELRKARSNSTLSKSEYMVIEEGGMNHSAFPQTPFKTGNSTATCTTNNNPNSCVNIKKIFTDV

IC50 [µM]	Compound
≤ 0.5	COc1ccccc1-c1cc(=O)oc2c(C)c3occ(C)c3cc12 [Example 1, 5-(2-methoxyphenyl)-3,9-dimethyl-7H-furo[3,2-g]chromen-7-one]
≤ 0.5	Cc1c(-c2ccccc2F)c2cc3c(C)coc3c(C)c2oc1=O [Example 5, 5-(2-fluorophenyl)-3,6,9-trimethyl-7H-furo[3,2-g]chromen-7-one]
≤ 0.5	COc1ccccc1-c1c(C)c(=O)oc2c(C)c3occ(C)c3cc12 [Example 7, 5-(2-methoxyphenyl)-3,6,9-trimethyl-7H-furo[3,2-g]chromen-7-one]
≤ 0.5	Cc1coc2c(C)c3oc(=O)cc(-c4ccccc4F)c3cc12 [Example 8, 5-(2-fluorophenyl)-3,9-dimethyl-7H-furo[3,2-g]chromen-7-one]
≤ 0.5	Cc1c(-c2ccccc2)c2cc3c(C)coc3c(C)c2oc1=O [Example 9, 3,6,9-trimethyl-5-phenyl-7H-furo[3,2-g]chromen-7-one]
≤ 0.5	CCOc1ccccc1-c1c(C)c(=O)oc2c(C)c3occ(C)c3cc12 [Example 10, 5-(2-ethoxyphenyl)-3,6,9-trimethyl-7H-furo[3,2-g]chromen-7-one]
≤ 0.5	Cc1c(-c2ccccc2Cl)c2cc3c(C)coc3c(C)c2oc1=O [Example 11, 5-(2-chlorophenyl)-3,6,9-trimethyl-7H-furo[3,2-g]chromen-7-one]
≤ 0.5	CCc1coc2c(C)c3oc(=O)c(C)c(-c4ccccc4)c3cc12 [Example 16, 3-ethyl-6,9-dimethyl-5-phenyl-7H-furo[3,2-g]chromen-7-one]
≤ 0.5	Cc1c(-c2ccccc2)c2cc3c(C)coc3nc2oc1=O [Example 25, 3,6-dimethyl-5-phenyl-7H-furo[2,3-b]pyrano[3,2-e]pyridin-7-one]
≤ 0.5	Cc1coc2c(C)c3[nH]c(=O)c(Br)c(-c4ccccc4)c3cc12 [Example 26, 6-bromo-3,9-dimethyl-5-phenylfuro[3,2-g]quinolin-7(8H)-one]
0.501 to 1.5	Cc1coc2c(C)c3[nH]c(=O)c(Br)c(-c4ccccc4F)c3cc12 [Example 27, 6-bromo-5-(2-fluorophenyl)-3,9-dimethylfuro[3,2-g]quinolin-7(8H)-one]
≤ 0.5	Cc1c(-c2ccccc2F)c2cc3c(C)coc3c(C)c2[nH]c1=O [Example 30, 5-(2-fluorophenyl)-3,6,9-trimethylfuro[3,2-g]quinolin-7(8H)-one]
≤ 0.5	Cc1c(-c2ccccc2)c2cc3c(C)coc3c(C)c2[nH]c1=O [Example 31, 3,6,9-trimethyl-5-phenylfuro[3,2-g]quinolin-7(8H)-one]
≤ 0.5	Cc1coc2c(C)c3c(cc12)c(-c1ccccc1)c(Br)c(=O)n3C [Example 33, 6-bromo-3,8,9-trimethyl-5-phenylfuro[3,2-g]quinolin-7(8H)-one]
≤ 0.5	Cc1c(-c2ccccc2)c2cc3c(C)coc3c(C)c2n(C)c1=O [Example 34, 3,6,8,9-tetramethyl-5-phenylfuro[3,2-g]quinolin-7(8H)-one]
≤ 0.5	Cc1c(-c2ccccc2)c2cc3c(C)noc3c(C)c2[nH]c1=O [Example 36, 3,6,9-trimethyl-5-phenylisoxazolo[4,5-g]quinolin-7(8H)-one]
≤ 0.5	Cc1c(-c2ccccc2Cl)c2cc3c(C)coc3c(C)c2[nH]c1=O [Example 40, 5-(2-chlorophenyl)-3,6,9-trimethylfuro[3,2-g]quinolin-7(8H)-one]
≤ 0.5	Cc1c2oc(=O)cc(-c3ccccc3)c2cc2c(C3CC3)coc12 [Example 41, 3-cyclopropyl-9-methyl-5-phenyl-7H-furo[3,2-g]chromen-7-one]
≤ 0.5	Cc1c(-c2ccccc2)c2cc3c(C)csc3c(C)c2oc1=O [Example 43, 3,6,9-trimethyl-4-phenyl-2H-thieno[3,2-g]chromen-2-one]
1.5 to 3	Cc1c(-c2ccccc2)c2cc3c(C)c(C#N)oc3c(C)c2oc1=O [Example 45]
≤ 0.5	Cc1c(-c2ccccc2)c2cc3c(C)coc3nc2n(C)c1=O [Example 49, 3,6,8-trimethyl-5-phenylfuro[2,3-b][1.8]naphthyridin-7(8H)-one]
≤ 0.5	Cc1c(-c2cccnc2)c2cc3c(C)coc3c(C)c2oc1=O [Example 53, 3,6,9-trimethyl-5-(pyridin-3-yl)-7H-furo[3,2-g]chromen-7-one]
≤ 0.5	Cc1c(-c2cccnc2)c2cc3c(C)coc3c(C)c2[nH]c1=O [Example 54, 3,6,9-trimethyl-5-(pyridin-3-yl)furo[3,2-g]quinolin-7(8H)-one]
≤ 0.5	Cc1c(-c2ccccc2Cl)c2cc3c(C)coc3c(C)c2n(C)c1=O [Example 60, 5-(2-chlorophenyl)-3,6,8,9-tetramethylfuro[3,2-g]quinolin-7(8H)-one]
≤ 0.5	Cc1c(-c2ccccc2F)c2cc3c(C)coc3c(C)c2n(C)c1=O [Example 61, 5-(2-fluorophenyl)-3,6,8,9-tetramethylfuro[3,2-g]quinolin-7(8H)-one]
0.501 to 1.5	COc1ncccc1-c1c(C)c(=O)oc2c(C)c3occ(C)c3cc12 [Example 62, 5-(2-methoxypyridin-3-yl)-3,6,9-trimethyl-7H-furo[3,2-g]chromen-7-one]

system: female Dark Agouti rats; experiment: Pristane-induced arthritis (PIA) model; type: in vivo, rat; conditions: MTX 0.05 mg/kg i.p., sid, DAY16 to DAY30; maximum AI=16; controls AI around 14; p=0.001
Description: Pristane-Induced Arthritis (PIA) Model
Arthritis was induced in female Dark Agouti rats by intradermal injection of 150 μL/rat pristane into the base of the tail on DAY0, according to Vingsbo et al., Am. J. Pathol. 1996, 149, 1675. Compound treatment was started on DAY16 and continued until DAY30, dosing Example 53 at 60 mg/kg, p.o., sid, and Example 34 at 45 mg/kg, p.o., bid, each in a lipophilic formulation. As a positive control, methotrexate (MTX) was dosed i.p., sid, with 0.05 mg/kg, also starting DAY16. Arthritis development was monitored daily by a macroscopic scoring system for the four limbs ranging from 0 to 4 (0=no visible effects of arthritis; 1=edema and/or erythema of one digit; 2=edema and/or erythema of two joints; 3=edema and/or erythema of more than two joints; 4=severe arthritis of the entire paw and digits, associated with ankylosis and deformity of the paw.), resulting in an Arthritic Index (AI) reflecting the sum of scores of all 4 limbs per rat (maximum AI=16).
Disease induction in saline-treated and vehicle-treated control animals reached a maximum of AI around 14.

Compound	Arthritic Index (AI)
CN(Cc1cnc2nc(N)nc(N)c2n1)c1ccc(C(=O)N[C@@H](CCC(=O)O)C(=O)O)cc1 [MTX, methotrexate]	~8.7
